Values after ≈ are worked out from the molar mass of the structure shown.
Tests used:
Experiment in all cases: In vitro antibacterial activity, MIC by agar dilution
Assay type in all cases: cell-based
Conditions in all cases: BHI agar, 35-37°C, 20-24 hours, unit assumed
[1] = system: Staphylococcus aureus 1775
Protocol: (§1) Each plate was inoculated with 1:100 (or 1:10 for slow growing strains, primarily Micrococcus and Streptococcus) dilutions of up to 32 different microorganisms, using a Steers replicator block calibrated to deliver approximately 10^4 colony forming units (CFUs). The inoculated plates were incubated at from about 35°C to about 37°C for approximately 20-24 hours. In addition, a control plate using BHI agar containing no test compound was prepared and incubated at the beginning and at the end of each test. Ciprofloxacin was used as the control antibiotic.
(§2) The MIC was defined as the lowest concentration of test compound yielding no growth (a slight haze or sparsely isolated colonies at the inoculum spot) as compared to the growth control containing no test compound.

Pseudomonas cepacia 296I = system: Pseudomonas cepacia 296I
Protocol: as §1, §2

[2] = system: Streptococcus bovis A5169
Protocol: as §1, §2

Escherichia coli DC-2 = system: Escherichia coli DC-2
Protocol: as §1, §2

[3] = system: Pseudomonas aeruginosa BMH10
Protocol: as §1, §2

[4] = system: Staphylococcus aureus NCTC 10649
Protocol: as §1, §2

[5] = system: Providencia stuartii CMX 640
Protocol: as §1, §2

[6] = system: Acinetobacter calcoaceticus CMX 669
Protocol: as §1, §2

[7] = system: Micrococcus luteus ATCC 9341
Protocol: as §1, §2

[8] = system: Streptococcus pyrogenes EES61
Protocol: as §1, §2

[9] = system: Pseudomonas aeruginosa 5263
Protocol: as §1, §2

[10] = system: Enterobacter aerogenes ATCC 13048
Protocol: as §1, §2

[11] = system: Pseudomonas aeruginosa K799/61
Protocol: as §1, §2

[12] = system: Staphylococcus aureus A5177
Protocol: as §1, §2

[13] = system: Streptococcus pyrogenes CONST
Protocol: as §1, §2

Escherichia coli H560 = system: Escherichia coli H560
Protocol: as §1, §2

Escherichia coli KNK 437 = system: Escherichia coli KNK 437
Protocol: as §1, §2

[14] = system: Micrococcus luteus ATCC 4698
Protocol: as §1, §2

[15] = system: Enterococcus faecium ATCC 8043
Protocol: as §1, §2

[16] = system: Streptococcus agalactaciae CMX 508
Protocol: as §1, §2

[17] = system: Staphylococcus aureus ATCC 6538P
Protocol: as §1, §2

[18] = system: Staphylococcus epidermidis 3519
Protocol: as §1, §2

Escherichia coli JUHL = system: Escherichia coli JUHL
Protocol: as §1, §2

[19] = system: Pseudomonas aeruginosa K799/WT
Protocol: as §1, §2

[20] = system: Staphylococcus aureus A-5278
Protocol: as §1, §2

[21] = system: Pseudomonas aeruginosa 2862
Protocol: as §1, §2

[22] = system: Pseudomonas aeruginosa A5007
Protocol: as §1, §2

[23] = system: Klebsiella pneumoniae ATCC 8045
Protocol: as §1, §2

Escherichia coli SS = system: Escherichia coli SS
Protocol: as §1, §2

[24] = system: Streptococcus pyrogenes 2548 INDUC
Protocol: as §1, §2

[25] = system: Staphylococcus aureus CMX 553
Protocol: as §1, §2

[26] = system: Staphylococcus aureus 642A
Protocol: as §1, §2

| Compound | MIC values [1] [µg/mL] | MIC values (Pseudomonas cepacia 296I) [µg/mL] | MIC values [2] [µg/mL] | MIC values (Escherichia coli DC-2) [µg/mL] | MIC values [3] [µg/mL] | MIC values [4] [µg/mL] | MIC values [5] [µg/mL] | MIC values [6] [µg/mL] | MIC values [7] [µg/mL] | MIC values [8] [µg/mL] | MIC values [9] [µg/mL] | MIC values [10] [µg/mL] | MIC values [11] [µg/mL] | MIC values [12] [µg/mL] | MIC values [13] [µg/mL] | MIC values (Escherichia coli H560) [µg/mL] | MIC values (Escherichia coli KNK 437) [µg/mL] | MIC values [14] [µg/mL] | MIC values [15] [µg/mL] | MIC values [16] [µg/mL] | further results |
| --- | --- | --- | --- | --- | --- | --- | --- | --- | --- | --- | --- | --- | --- | --- | --- | --- | --- | --- | --- | --- | --- |
| CN1CCN(c2nc3c(C4CC4)cc(C(=O)O)c(=O)n3cc2F)CC1 [Example 163, 9-Cyclopropyl-3-fluoro-2-(4-methylpiperazin-1-yl)-6H-6-oxo-pyrido[1,2-a]pyrimidine-7-carboxylic acid] | 100 (≈ 289 µM) | 12.5 (≈ 36.1 µM) | 50 (≈ 144 µM) | 6.2 (≈ 17.9 µM) | 1.56 (≈ 4.5 µM) | 0.78 (≈ 2.25 µM) | 50 (≈ 144 µM) | 0.39 (≈ 1.13 µM) | 25 (≈ 72.2 µM) | 12.5 (≈ 36.1 µM) | 100 (≈ 289 µM) | 0.39 (≈ 1.13 µM) | 1.56 (≈ 4.5 µM) | 1.56 (≈ 4.5 µM) | 12.5 (≈ 36.1 µM) | 0.1 (≈ 0.289 µM) | 3.1 (≈ 8.95 µM) | 12.5 (≈ 36.1 µM) | 12.5 (≈ 36.1 µM) | 12.5 (≈ 36.1 µM) | MIC values [17]: 1.56 µg/mL (≈ 4.5 µM); MIC values [18]: 1.56 µg/mL (≈ 4.5 µM); MIC values (Escherichia coli JUHL): 0.2 µg/mL (≈ 0.577 µM); MIC values [19]: 3.1 µg/mL (≈ 8.95 µM); MIC values [20]: 1.56 µg/mL (≈ 4.5 µM); MIC values [21]: > 100 µg/mL; MIC values [22]: 3.1 µg/mL (≈ 8.95 µM); MIC values [23]: 0.1 µg/mL (≈ 0.289 µM); MIC values (Escherichia coli SS): 0.1 µg/mL (≈ 0.289 µM); MIC values [24]: 12.5 µg/mL (≈ 36.1 µM); MIC values [25]: 1.56 µg/mL (≈ 4.5 µM); MIC values [26]: 1.56 µg/mL (≈ 4.5 µM) |
| O=C(O)c1cc(C2CC2)c2nc(N3CCNCC3)c(F)cn2c1=O [Example 164, 9-Cyclopropyl-3-fluoro-2-(piperazin-1-yl)-6H-6-oxo-pyrido[1,2-a]pyrimidine-7-carboxylic acid] | 50 (≈ 150 µM) | 3.1 (≈ 9.33 µM) | 12.5 (≈ 37.6 µM) | 1.56 (≈ 4.69 µM) | 0.39 (≈ 1.17 µM) | 1.56 (≈ 4.69 µM) | 12.5 (≈ 37.6 µM) | 0.39 (≈ 1.17 µM) | 12.5 (≈ 37.6 µM) | 12.5 (≈ 37.6 µM) | 100 (≈ 301 µM) | 0.05 (≈ 0.15 µM) | 0.1 (≈ 0.301 µM) | 1.56 (≈ 4.69 µM) | 12.5 (≈ 37.6 µM) | 0.1 (≈ 0.301 µM) | 1.56 (≈ 4.69 µM) | 6.2 (≈ 18.7 µM) | 12.5 (≈ 37.6 µM) | 12.5 (≈ 37.6 µM) | MIC values [17]: 0.78 µg/mL (≈ 2.35 µM); MIC values [18]: 1.56 µg/mL (≈ 4.69 µM); MIC values (Escherichia coli JUHL): 0.05 µg/mL (≈ 0.15 µM); MIC values [19]: 0.39 µg/mL (≈ 1.17 µM); MIC values [20]: 1.56 µg/mL (≈ 4.69 µM); MIC values [21]: 100 µg/mL (≈ 301 µM); MIC values [22]: 0.39 µg/mL (≈ 1.17 µM); MIC values [23]: 0.05 µg/mL (≈ 0.15 µM); MIC values (Escherichia coli SS): 0.02 µg/mL (≈ 0.0602 µM); MIC values [24]: 12.5 µg/mL (≈ 37.6 µM); MIC values [25]: 1.56 µg/mL (≈ 4.69 µM); MIC values [26]: 1.56 µg/mL (≈ 4.69 µM) |

From patent EP0527889B1, “QUINOLIZINONE TYPE COMPOUNDS” (priority 1990, dated 1991)
